Assay results as given in PubChem BioAssay AID248 (DTP/NCI, 2004).
Where “and” joins values, the source holds several entries; their conditions need not be identical. Identical values can stand only once. Toxic doses and inconclusive results are not listed. No stated cut-off is given here; in the data, active means T/C of 150% or more; inactive means T/C below 125%.

Test system: L1210 leukemia ip in BDF1 mice, survival T/C
Assay: NCI In Vivo Anticancer Drug Screen. Data for tumor model L1210 Leukemia (intraperitoneal) in B6D2F1 (BDF1) mice
Conditions: endpoint: mean survival time, higher = longer survival
Method in brief: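 Transplantable tumor model; survival measured in treated vs vehicle control mice. Value = treated/control.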

[1] = dose: 12.5 mg/kg/injection, schedule: Q01DX009 (ip), vehicle: saline with Tween-80
[2] = dose: 12.5 mg/kg/injection, schedule: Q01DX009 (ip), vehicle: saline
[3] = dose: 25.0 mg/kg/injection, schedule: Q01DX009 (ip), vehicle: saline
[4] = dose: 100.0 mg/kg/injection, schedule: Q01DX001 (ip), vehicle: saline
[5] = dose: 200.0 mg/kg/injection, schedule: Q01DX001 (ip), vehicle: saline

Measured: T/C

CC1(C)CCC2=C1CC[C@H]1[C@H]2CCC2=CC(=O)CC[C@@]21C
inactive: dose: 50.0 mg/kg/injection, schedule: Q01DX001 (sc), vehicle: steriod suspending solution 102 % of control | dose: 100.0 mg/kg/injection, schedule: Q01DX001 (sc), vehicle: steriod suspending solution 96 % of control | dose: 200.0 mg/kg/injection, schedule: Q01DX001 (sc), vehicle: steriod suspending solution 102 % of control | dose: 400.0 mg/kg/injection, schedule: Q01DX001 (sc), vehicle: steriod suspending solution 102 % of control

CNC(C)(C)C(SSSC(c1ccc(Cl)cc1)C(C)(C)NC)c1ccc(Cl)cc1 (stereo not drawn)
inactive: [1] 103 % of control | dose: 12.5 mg/kg/injection, schedule: Q04DX003 (ip), vehicle: saline with Tween-80 98 % of control | dose: 25.0 mg/kg/injection, schedule: Q01DX009 (ip), vehicle: saline with Tween-80 98 % of control | dose: 25.0 mg/kg/injection, schedule: Q04DX003 (ip), vehicle: saline with Tween-80 100 % of control | dose: 50.0 mg/kg/injection, schedule: Q01DX009 (ip), vehicle: saline with Tween-80 97 % of control | dose: 50.0 mg/kg/injection, schedule: Q04DX003 (ip), vehicle: saline with Tween-80 96 % of control

CCOc1ccc(NC(C)=O)c(O)c1
inactive: dose: 75.0 mg/kg/injection, schedule: Q01DX001 (ip), vehicle: saline 101 % of control | dose: 150.0 mg/kg/injection, schedule: Q01DX001 (ip), vehicle: saline 98 % of control

O=NN(CCCl)C(=O)NC1CCSc2ccccc21 (stereo not drawn)
inactive: dose: 187.5 mg/kg/injection, schedule: Q01DX001 (ip), vehicle: other 96 % of control
active: dose: 18.0 mg/kg/injection, schedule: Q01DX001 (ip), vehicle: other 170 % of control and 182 % of control and 219 % of control | dose: 26.0 mg/kg/injection, schedule: Q01DX001 (ip), vehicle: other 232 % of control | dose: 27.0 mg/kg/injection, schedule: Q01DX001 (ip), vehicle: other 306 % of control and 315 % of control | dose: 40.0 mg/kg/injection, schedule: Q01DX001 (ip), vehicle: other 323 % of control and 340 % of control and 356 % of control | dose: 60.0 mg/kg/injection, schedule: Q01DX001 (ip), vehicle: other 289 % of control and 313 % of control and 365 % of control

c1ccc2c(c1)Cc1cc3ccccc3cc1-2
inactive: dose: 50.0 mg/kg/injection, schedule: Q01DX001 (ip), vehicle: gum acacia 94 % of control | dose: 100.0 mg/kg/injection, schedule: Q01DX001 (ip), vehicle: gum acacia 95 % of control | dose: 200.0 mg/kg/injection, schedule: Q01DX001 (ip), vehicle: gum acacia 94 % of control

CC(C)NC(C)c1c[nH]c2ccccc12 (stereo not drawn)
inactive: dose: 12.5 mg/kg/injection, schedule: Q04DX003 (ip), vehicle: Klucel (hydroxypropylcellulose) (HPC) 101 % of control | dose: 25.0 mg/kg/injection, schedule: Q04DX003 (ip), vehicle: Klucel (hydroxypropylcellulose) (HPC) 97 % of control | dose: 50.0 mg/kg/injection, schedule: Q04DX003 (ip), vehicle: Klucel (hydroxypropylcellulose) (HPC) 103 % of control

CC(=O)CC1CCC(CC(C)=O)CC1 (stereo not drawn)
inactive: dose: 100.0 mg/kg/injection, schedule: Q04DX002 (ip), vehicle: other 98 % of control | dose: 200.0 mg/kg/injection, schedule: Q04DX002 (ip), vehicle: other 90 % of control | dose: 400.0 mg/kg/injection, schedule: Q04DX002 (ip), vehicle: other 98 % of control

COc1cc(C)c(C(=O)Oc2cc(C)c(C(=O)O)c(O)c2C)c(OC)c1C
inactive: dose: 6.25 mg/kg/injection, schedule: Q01DX009 (ip), vehicle: saline 95 % of control | [2] 98 % of control | [3] 97 % of control and 98 % of control | dose: 37.5 mg/kg/injection, schedule: Q01DX Z (ip), vehicle: saline 93 % of control | dose: 75.0 mg/kg/injection, schedule: Q01DX Z (ip), vehicle: saline 98 % of control | dose: 100.0 mg/kg/injection, schedule: Q01DX Z (ip), vehicle: saline 96 % of control | dose: 150.0 mg/kg/injection, schedule: Q01DX Z (ip), vehicle: saline 93 % of control | dose: 300.0 mg/kg/injection, schedule: Q01DX Z (ip), vehicle: saline 98 % of control

Clc1ccccc1C(c1cccc2ccccc12)n1ccnc1 (stereo not drawn)
inactive: dose: 25.0 mg/kg/injection, schedule: Q04DX002 (ip), vehicle: Klucel (hydroxypropylcellulose) (HPC) 92 % of control | dose: 50.0 mg/kg/injection, schedule: Q04DX002 (ip), vehicle: Klucel (hydroxypropylcellulose) (HPC) 100 % of control | dose: 100.0 mg/kg/injection, schedule: Q04DX002 (ip), vehicle: Klucel (hydroxypropylcellulose) (HPC) 100 % of control | dose: 200.0 mg/kg/injection, schedule: Q01DX009 (ip), vehicle: Klucel (hydroxypropylcellulose) (HPC) 93 % of control | dose: 400.0 mg/kg/injection, schedule: Q01DX009 (ip), vehicle: Klucel (hydroxypropylcellulose) (HPC) 86 % of control

O=C(CC(O)c1ccccc1)Nc1ccccn1 (stereo not drawn)
inactive: [4] 98 % of control | [5] 102 % of control | dose: 400.0 mg/kg/injection, schedule: Q01DX001 (ip), vehicle: saline 93 % of control

Cc1c(C(=O)OCCCl)c(=O)n(-c2ccccc2)n1C
inactive: [4] 98 % of control | [5] 98 % of control

Cc1cc(NC(=O)Nc2ccc(Cl)cc2C)no1
inactive: dose: 12.5 mg/kg/injection, schedule: Q01DX009 (ip), vehicle: Klucel (hydroxypropylcellulose) (HPC) 102 % of control | dose: 25.0 mg/kg/injection, schedule: Q01DX009 (ip), vehicle: Klucel (hydroxypropylcellulose) (HPC) 97 % of control | dose: 50.0 mg/kg/injection, schedule: Q01DX009 (ip), vehicle: Klucel (hydroxypropylcellulose) (HPC) 91 % of control

CC[N+]1(CC)CCC(OC(=O)C(O)(c2ccccc2)c2ccccc2)C1 (stereo not drawn)
inactive: dose: 5.0 mg/kg/injection, schedule: Q01DX001 (ip), vehicle: saline 97 % of control | dose: 10.0 mg/kg/injection, schedule: Q01DX001 (ip), vehicle: saline 92 % of control | dose: 20.0 mg/kg/injection, schedule: Q01DX001 (ip), vehicle: saline 97 % of control | dose: 40.0 mg/kg/injection, schedule: Q01DX001 (ip), vehicle: saline 97 % of control | dose: 80.0 mg/kg/injection, schedule: Q01DX001 (ip), vehicle: saline 103 % of control

C#CC(OC(=O)NC1CCCCC1)(c1ccccc1)c1ccccc1
active: dose: 50.0 mg/kg/injection, schedule: Q01DX009 (ip), vehicle: saline 157 % of control
inactive: dose: 3.0 mg/kg/injection, schedule: Q01DX009 (ip), vehicle: carboxymethylcellulose (CMC) 101 % of control | dose: 6.0 mg/kg/injection, schedule: Q01DX009 (ip), vehicle: carboxymethylcellulose (CMC) 100 % of control | dose: 6.25 mg/kg/injection, schedule: Q01DX009 (ip), vehicle: saline with Tween-80 106 % of control | dose: 12.0 mg/kg/injection, schedule: Q01DX009 (ip), vehicle: carboxymethylcellulose (CMC) 110 % of control | [1] 106 % of control | [2] 106 % of control | dose: 25.0 mg/kg/injection, schedule: Q01DX009 (ip), vehicle: carboxymethylcellulose (CMC) 116 % of control | [3] 114 % of control | dose: 88.0 mg/kg/injection, schedule: Q04DX003 (ip), vehicle: saline sonified 107 % of control | dose: 100.0 mg/kg/injection, schedule: Q01DX001 (ip), vehicle: carboxymethylcellulose (CMC) 97 % of control | dose: 100.0 mg/kg/injection, schedule: Q01DX009 (ip), vehicle: saline sonified 96 % of control | dose: 100.0 mg/kg/injection, schedule: Q01DX009 (ip), vehicle: saline 97 % of control | dose: 132.0 mg/kg/injection, schedule: Q04DX003 (ip), vehicle: saline sonified 110 % of control | dose: 200.0 mg/kg/injection, schedule: Q01DX001 (ip), vehicle: carboxymethylcellulose (CMC) 104 % of control | dose: 300.0 mg/kg/injection, schedule: Q04DX003 (ip), vehicle: saline sonified 110 % of control | dose: 400.0 mg/kg/injection, schedule: Q01DX001 (ip), vehicle: carboxymethylcellulose (CMC) 116 % of control

Cc1ncc(CO)n1Cc1ccccc1
inactive: dose: 100.0 mg/kg/injection, schedule: Q01DX001 (ip), vehicle: Klucel (hydroxypropylcellulose) (HPC) 104 % of control | dose: 200.0 mg/kg/injection, schedule: Q01DX001 (ip), vehicle: Klucel (hydroxypropylcellulose) (HPC) 104 % of control | dose: 400.0 mg/kg/injection, schedule: Q01DX001 (ip), vehicle: Klucel (hydroxypropylcellulose) (HPC) 114 % of control
